The nature of series [1]: Kugelrohr distillation (purification) of SMA in the presence of the inhibitors. As to conditions: 500 ppm inhibitor, 10 g SMA, kugelrohr 240 °C, about 0.2 mbar; visual viscosity increase. The protocol: The temperature of the kugelrohr is set to 240° C. The distillation starts when the vacuum reached about 0.2 mbar. Polymerization in the rotating pitch is evaluated by visually determining increased viscosity.
The inhibitors were added as such to the SMA prior to the distillation, no methanolic solution as described earlier is used.

Series [2] can be described thus: Synthesis of SMA via transesterification in the presence of the inhibitors. As to conditions: 500 ppm inhibitor. On the procedure: SMA is prepared via transesterification in the presence of the indicated inhibitors. A two-neck flask, equipped with a Dean-Stark apparatus and a reflux condenser, is charged with three equivalents of methyl methacrylate, one equivalent of stearyl/palmityl alcohol and 500 ppm of inhibitor. Air is bubbled through the solution using a needle, septum and vacuum pump, set at 900 mbar.
The methyl methacrylate/methanol azeotrope is collected and at the end of the reaction any remaining methyl methacrylate is removed under reduced pressure at the rotavapor.

Where [3] appears, read: end of reaction after removal of methanol and excess methyl methacrylate.

With `CCCCCCCCS(=O)(=O)[O-].CN(C)c1ccc2nc3ccc(N(C)C)cc3[s+]c2c1` [Inhibitor I-1, octanesulfonate salt of methylene blue], the Polymerization result in series [1] was “no”.
For `CCCCCCCCS(=O)(=O)[O-].CN(C)c1ccc2nc3ccc(N(C)C)cc3[s+]c2c1.[Cl-].[Na+]` [Inhibitor I-1a], the Polymerization entry in series [1] is on record as “no”.
In the case of `CCCCCCCCCCCCCCCCS(=O)(=O)[O-].CN(C)c1ccc2nc3ccc(N(C)C)cc3[s+]c2c1.[Cl-].[Na+]` [Inhibitor I-2a], the “Properties end (color of the reaction mixture)” value in series [2] (setting [3]) is reported as “brown liquid very”. Moreover, in series [2] (start of reaction), the “Properties start (color of the reaction mixture)” value is reported as “dark blue solution”. Moreover, the Polymerization result in series [1] is reported as “no”.
As to `CC(C)(C)c1cc(OCCCS(=O)(=O)[O-])c(C(C)(C)C)cc1O.CN(C)c1ccc2nc3ccc(N(C)C)cc3[s+]c2c1` [Inhibitor I-4], the “Properties end (color of the reaction mixture)” value in series [2] (setting [3]) is on record as “purple liquid”. For the same molecule, the “Properties start (color of the reaction mixture)” value in series [2] (start of reaction) is reported as “deep purple solution”. In series [1], the Polymerization entry is given as “no”.
Consider `CN(C)c1ccc2nc3ccc(=[N+](C)C)cc-3sc2c1` [MB, methylene blue], for which, in series [2] (setting [3]), the “Properties end (color of the reaction mixture)” value is “brown liquid”. In series [2] (start of reaction), the “Properties start (color of the reaction mixture)” value was “dark blue solution”.
Take `COc1ccc(O)cc1` [MeHQ, 4-methoxyphenol]: in series [2] (setting [3]), the “Properties end (color of the reaction mixture)” value is listed as “yellow liquid white” and the “Properties end (precipitate / solubility of catalyst/inhibitor)” value was “precipitate (catalyst)”. For the same molecule, in series [2] (start of reaction), the “Properties start (color of the reaction mixture)” value is “colorless solution” and the “Properties start (solubility of catalyst/inhibitor)” value is “homogeneous”.

Values taken from patent US9981929B2, “Method for prevention of premature polymerization” (NITTO BELGIUM NV, priority 2015, dated 2018).
